Reference: patent US8269017B2, “Compounds for the treatment of proliferative disorders” (Synta Pharmaceuticals Corporation, priority 2005, dated 2012)
“Also recorded” adds a separate entry of the source. Read-outs that look alike come from different tables or passages of the source.

What was measured:
MDA-435 = test: Cytotoxicity in MDA-435 tumor cells (Cell Counting Kit 8); type: cell-based; conditions: Homo sapiens, MDA435, MDA-435 cells, 70 h
Experimental: Tumor cell line, MDA-435, was seeded in 96-well plates at 1×10^4 cells/well in DMEM medium and treated with compounds at different concentrations. Taxol was used as a positive control. The cells were incubated at 37° C. for 70 h. Viability of the cells was measured with Cell Counting Kit 8 (Dojindo, Cat #CK04). IC50 of the compounds was determined by Five-Parameter Logistic equation.

[1] = tested on: α-tubulin-YFP labeled microtubules in MCF7-α-tubulin-YFP cells; test: Inhibition of tubulin polymerization in α-tubulin-YFP expressing cells (fluorescence imaging); type: cell-based
Experimental: Living cells were examined using a fluorescent microscope for α-tubulin-YFP expression.
CHO-α-tubulin-YFP or MCF7-α-tubulin-YFP cells were cultured in 2-well chambered cover-slips (Labtek (Campbell, Calif.) or Fisher Scientific) for 24 hours before treatment with a compound of the invention. For comparison of the effects of treatment on α-tubulin-YFP labeled microtubules with the compounds of the invention, CHO-α-tubulin-YFP or MCF7-α-tubulin-YFP cells were treated with the a compound of the invention, Taxol or equivalent concentrations of DMSO-containing media for various time periods before imaging. Tubulin-YFP fluorescence in living cells or fixed cells was captured using a standard filter for FITC and objectives of 20× or 60× magnification on a Nikon TE300 microscope with a Leica DC50 color digital camera (Leica, Bannockburn, Ill.) or a CoolSnap HQ monochrome CCD camera (Photonetrics, Tucson, Ariz.). The Leica DC50 and CoolSnapHQ cameras were controlled with Leica DC50 software and MetaVue/MetaMorph software, respectively (Universal Imaging Corp, Downingtown, Pa.).

SB cells = test: Induction of apoptosis in SB cells (Annexin V/PI, FACS); type: cell-based; conditions: 24 h; for % Apoptotic Cells Gated: 1 μM; for cytotoxicity at 1 µM: read-out: % Dead Cells Gated; for viability at 1 µM: read-out: % Live Cells Gated
Experimental: SB cells (2×10^5 cells/mL) were cultured in 12-well plates (2 mL/well) and were left untreated (negative control), treated with Taxol (positive control), or treated with a compound of the invention for 24 h at 37° C. After treatment, the cells were washed one time with 1×PBS and stained with FITC labeled anti-Annexin V and PI (10 μg/ml) for 15 min at room temperature. The cells were analyzed by FACSCalibur (Becton Dickinson).

MDA-435 cells = test: Cell cycle analysis in MDA-435 cells; type: cell-based, human; conditions: 20 h, Taxol 30 nM, Comp. 1 100 nM, Comp. 2 500 nM, Comp. 3 10 nM, Comp. 6 800 mM (so in the source), Comp. 46 50 nM
Experimental: MDA-435 cells were cultured in 6-well plates at 1×10^6 cells/well and were untreated (negative control), treated with Taxol (positive control), or treated with a compound of the invention at 37° C. for 20 h. The cells were detached with 1× trypsin and washed one time with PBS. Cycle TEST PLUS kit (BD PharMingen, Cat #340242) was used to stain the cells. Cell cycle was analyzed with FACScomp program (BS PharMingen).

[2] = tested on: MCF-7 (human breast carcinoma); test: In vitro cytotoxicity, MTS assay, MCF-7; type: cell-based; conditions: MCF7, MCF-7 (Breast Cancer), 72 hours
Experimental: (§1) The in vitro cytotoxicity of the compounds of the invention was determined in the following human cell lines: HL-60 (T-cell leukemia), MDA-435 and MCF-7 (human breast carcinoma), NCI-H460 and H29 (colon carcinoma), DU145 (prostate carcinoma), and MES-SA and MES-SA/DX5 (uterine sarcoma). MES-SA is a model of uterine sarcoma, and the cell are sensitive to a number of chemotherapeutic agents including doxorubicin, dactinomycin, mitomycin C, taxol and bleomycin, but resistant to vinblastine and cisplatin. MES-SA/Dx5 was established in the presence of increasing concentrations of doxorubicin. […] All cells were purchased from ATCC.
(§2) The cell lines were maintained in RPMI1640 (GIBCO) supplemented with 10% FCS, 100 units/mL penicillin, 100 ug/ml streptomycin, and 2 mM L-glutamine. Cells were split every third day and diluted to a concentration of 2×10^5 cells/mL one day before the experiment was performed. All experiments were performed on exponentially growing cell cultures. Cell densities were 2.5×10^4 cells/mL in all experiments.
(§3) Compounds of the invention were prepared by dissolving the compound at a concentration of 10 mM in 100% DMSO. Final concentrations 10, 1, 0.1, 0.01 and 0.001 μM were obtained by diluting the stock solution directly into the tissue culture medium.

[3] = tested on: MDA-435 (human breast carcinoma); test: In vitro cytotoxicity, MTS assay, MDA-435; type: cell-based; conditions: MDA435, MDA-435 (Breast Cancer), 72 hours
Experimental: as §1, §2, §3

MES-SA (uterine sarcoma) = test: In vitro cytotoxicity, MTS assay, MES-SA; type: cell-based, human; conditions: MES-SA (Uterine Carcinoma), 72 hours
Experimental: as §1, §2, §3

H29 (colon carcinoma) = test: In vitro cytotoxicity, MTS assay, H29; type: cell-based; conditions: Homo sapiens, 72 hours
Experimental: as §1, §2, §3

HL-60 (T-cell leukemia) = test: In vitro cytotoxicity, MTS assay, HL-60; type: cell-based, human; conditions: 72 hours
Experimental: as §1, §2, §3

[4] = tested on: NCI-H460 (colon carcinoma); test: In vitro cytotoxicity, MTS assay, NCI-H460; type: cell-based; conditions: Homo sapiens, 72 hours
Experimental: as §1, §2, §3

[5] = tested on: DU145 (prostate carcinoma); test: In vitro cytotoxicity, MTS assay, DU145; type: cell-based; conditions: Homo sapiens, DU-145, 72 hours
Experimental: as §1, §2, §3

[6] = tested on: MES-SA/DX5 (uterine sarcoma, MDR-1); test: cells; type: cell-based; conditions: Homo sapiens, MES/DX5 (MDR-1), MTS assay
Experimental: as §1, §2, §3

[7] = Body weight change in MDA-MB-435S xenograft study (Example 10); type: in vivo, nude mouse; conditions: i.v.
Experimental: (§4) Seven to eight week old, female Crl:CD-1-nuBR (nude) mice were obtained from Charles River Laboratories (Wilmington, Mass., USA). Animals were housed 4-5/cage in micro-isolators, with a 12 hr/12 hr light/dark cycle, acclimated for at least 1 week prior to use and fed normal laboratory chow ad libitum. Studies were conducted on animals between 8 and 10 weeks of age at implantation. To implant MDA-MB-4355 tumor cells into nude mice, the cells were trypsinized as above, washed in PBS and resusupended at a concentration of 50×10(6) cells/ml in PBS. Using a 27 gauge needle and 1 cc syringe, 0.1 ml of the cell suspension was injected into the corpus adiposum of nude mice. The corpus adiposum is a fat body located in the ventral abdominal vicera in the right quadrant of the abdomen at the juncture of the os coxae (pelvic bone) and the os femoris (femur).
(§5) Compounds were formulated in either D5W (Compounds 169 and 174) or DRD (Compound 178). For formulations in D5W, solutions of test articles were prepared by dissolving the appropriate amounts of each compound in 5% dextrose in water (Abbott Laboratories, North Chicago, Ill., USA) by sonication in an ultrasonic water bath. For formulations in DRD, stock solutions of test articles were prepared by dissolving the appropriate amounts of each compound in dimethyl sulfoxide (DMSO) by sonication in an ultrasonic water bath. Stock solutions were prepared weekly, stored at −20° C. and diluted fresh each day for dosing. A solution of 20% Cremophore RH40 (polyoxyl 40 hydrogenated castor oil; BASF Corp., Aktiengesellschaft, Ludwigshafen, Germany) in 5% dextrose in water (Abbott Laboratories, North Chicago, Ill., USA) was also prepared by first heating 100% Cremophore RH40 at 50-60° C. until liquefied and clear, diluting 1:5 with 100% D5W, reheating again until clear and then mixing well. This solution was stored at room temperature for up to 3 months prior to use. To prepare DRD formulations for daily dosing, DMSO stock solutions were diluted 1:10 with 20% Cremophore RH40. […]

[8] = tested on: human tumor cell line MDA-MB-435S; test: Nude mouse xenograft, MDA-MB-435S (Example 10); type: in vivo
Experimental: as §4
Tumors were then permitted to develop in vivo until the majority reached an average of 100-200 mm^3 in tumor volume, which typically required 2-3 weeks following implantation. […] Tumor volumes (V) were calculated by caliper measurement of the width (W), length (L) and thickness (T) of tumors using the following formula: V=0.5236×(L×W×T). Animals were randomized into treatment groups so that the median tumor volumes of each group were similar at the start of dosing. % T/C values, as a measure of efficacy, were determined as follows: • (i) If ΔT>0: % T/C=[…] • (ii) If ΔT<0: % T/C=(ΔT/T0)×100 • (iii) ΔT=Change in median tumor volume between start of dosing and the end of study. • (iv) ΔC=Change in median tumor volume between start of dosing and the end of study. • (v) T0=Median tumor volume at start of dosing.
as §5, with “use.” for “use. To prepare DRD formulations for daily dosing, DMSO stock solutions were diluted 1:10 with 20% Cremophore RH40.”

[9] = MCF7-α-tubulin-YFP cells treated with 1.0 μM compound
[10] = Homo sapiens, HL-60, HL60 (Leukemia), read-out: IC50
[11] = Compound 169 at 2 mg/kg, Compound 174 at 4.55 mg/kg body weight, i.v., 1 time/week, 3 doses

| SMILES | IC50 (MDA-435) | % Apoptotic Cells Gated (SB cells) | cytotoxicity at 1 µM (SB cells) | viability at 1 µM (SB cells) | Apoptotic Population (%) (MDA-435 cells) | G0/G1 Phase (%) (MDA-435 cells) | G2/M Phase (%) (MDA-435 cells) | S Phase (%) (MDA-435 cells) | IC50 [2] | IC50 [3] | IC50 (MES-SA (uterine sarcoma); Homo sapiens, read-out: IC50) | IC50 (H29 (colon carcinoma)) | IC50 (HL-60 (T-cell leukemia); [10]) | IC50 [4] | IC50 [5] | IC50 ([6]; MDR1, 72 h) | other results |
| --- | --- | --- | --- | --- | --- | --- | --- | --- | --- | --- | --- | --- | --- | --- | --- | --- | --- |
| COc1cc(-c2oncc2-c2ccc(Br)cc2)cc(OC)c1OC [Compound 1, 4-(4-Bromo-phenyl)-5-(3,4,5-trimethoxy-phenyl)-isoxazole] | 0.132 µM | 18.36% | 14.4% | 60.1% | 11.35% | 19.15% | 32.60% | 37.60% | – | – | – | – | – | – | – | – | Tubulin-YFP signal pattern in live cells [1, 9]: cytoplasmic pattern |
| CCc1cc(-c2oncc2-c2ccc(I)cc2)c(O)cc1OC [Compound 4, 4-(4-Iodo-phenyl)-5-(2-hydroxy-4-methoxy-5-ethyl-phenyl)-isoxazole] | 0.232 µM | 19.05% | 20.1% | 52.8% | – | – | – | – | 0.05 µM | 0.05 µM | 0.05 µM | 0.05 µM | 0.05 µM | 0.05 µM | 0.05 µM | 0.05 µM | – |
| CCc1cc(-c2oncc2-c2ccc(Br)cc2)c(O)cc1OC [Compound 6, 4-(4-Bromo-phenyl)-5-(2-hydroxy-4-methoxy-5-ethyl-phenyl)-isoxazole] | 0.461 µM | 14.17% | 17.3% | 59.2% | 10.59% | 18.45% | 35.96% | 35.55% | – | – | – | – | – | – | – | – | Tubulin-YFP signal pattern in live cells [1, 9]: cytoplasmic pattern |
| COc1cc(-c2oncc2-c2ccc3c(c2)OCCO3)cc(OC)c1OC [Compound 46, 4-(2,3-Dihydro-benzo[1,4]dioxin-6-yl)-5-(3,4,5-trimethoxy-phenyl)-isoxazole] | 0.021 µM | 19.04% | 17.3% | 51% | 9.88% | 19.67% | 28.18% | 37.98% | 0.05 µM | 0.05 µM | 0.05 µM | 0.05 µM | 0.05 µM | 0.05 µM | 0.1 µM | 0.05 µM | – |
| COc1ccc(-c2cnoc2-c2cc(OC)c(OC)c(OC)c2)cc1NC(=O)CN.Cl [Compound 169, 2-Amino-N-{2-methoxy-5-[5-(3,4,5-trimethoxy-phenyl)-isoxazol-4-yl]-phenyl}-acetamide] | – | – | – | – | – | – | – | – | – | – | 0.003 µM | – | 0.007 µM | – | – | 0.003 µM | overt toxicity (effect on body weights) ([7]; Compound 169 at 2 and 1 mg/kg, Compound 174 at 4.55 and 2.28 mg/kg body weight, 1 time per week, 3 doses): not overtly toxic; also recorded: not associated with overt toxicity; % T/C [8, 11]: 38%; in vivo growth rate of MDA-MB-435S tumors [8, 11]: substantially inhibited tumor growth; also recorded: substantially decreased the growth rate |
| COc1ccc(-c2cnoc2-c2cc(OC)c(OC)c(OC)c2)cc1OP(=O)(O)O [Compound 178, Sodium 2-methoxy-5-[5-(3,4,5-trimethoxy-phenyl)-isoxazol-4-yl)-phenyl phosphate] | – | – | – | – | – | – | – | – | – | – | – | – | – | – | – | – | IC50 (MES-SA (uterine sarcoma); phosphate): 0.004 µM; IC50 (HL-60 (T-cell leukemia); HL60 (Leukemia), phosphate): 0.022 µM; overt toxicity (effect on body weights) ([7]; Compound 178 at 25, 37.5 or 50 mg/kg body weight, 3 times per week, phosphate): not overtly toxic; also recorded: not associated with overt toxicity; efficacy on in vivo growth of MDA-MB-435S tumors ([8]; i.v. 3 times per week, dose escalation: 3 doses at 25, 3 at 37.5, 3 at 50 mg/kg, efficacy at 37.5 and 50 mg/kg, phosphate): began to show moderate efficacy; also recorded: began to show modest efficacy |
| CC(=O)O[C@H]1C(=O)[C@@]2(C)[C@H]([C@H](OC(=O)c3ccccc3)[C@]3(O)C[C@H](OC(=O)[C@H](O)[C@@H](NC(=O)c4ccccc4)c4ccccc4)C(C)=C1C3(C)C)[C@]1(OC(C)=O)CO[C@@H]1C[C@@H]2O [Taxol, reference compound] | 0.016 µM | 17.84% | 12.5% | 63.7% | 16.17% | 19.12% | 32.32% | 32.93% | 0.005 µM | 0.002 µM | 0.005 µM | 0.01 µM | 0.005 µM | 0.005 µM | 0.005 µM | – | Tubulin-YFP signal pattern in live cells ([1]; MCF7-α-tubulin-YFP cells treated with 0.1 μM Taxol): microtubule bundle formation; IC50 ([6]; MDR1, 72 hours, read-out: IC50): 10 µM |
